The text below walks through data of patent publication US20220177471A1, “N-1 BRANCHED ALKYL SUBSTITUTED IMIDAZO[4,5-C]QUINOLINE COMPOUNDS, COMPOSITIONS, AND METHODS” (3M INNOVATIVE PROPERTIES COMPANY, priority 2019, published 2022).

The target in one test is T1, human TLR7 (Homo sapiens, UniProt Q9NYK1).
T1 construct: host or cells: HEK293 (HEK-BLUE-hTLR7)
T1 sequence (Q9NYK1 27-1049): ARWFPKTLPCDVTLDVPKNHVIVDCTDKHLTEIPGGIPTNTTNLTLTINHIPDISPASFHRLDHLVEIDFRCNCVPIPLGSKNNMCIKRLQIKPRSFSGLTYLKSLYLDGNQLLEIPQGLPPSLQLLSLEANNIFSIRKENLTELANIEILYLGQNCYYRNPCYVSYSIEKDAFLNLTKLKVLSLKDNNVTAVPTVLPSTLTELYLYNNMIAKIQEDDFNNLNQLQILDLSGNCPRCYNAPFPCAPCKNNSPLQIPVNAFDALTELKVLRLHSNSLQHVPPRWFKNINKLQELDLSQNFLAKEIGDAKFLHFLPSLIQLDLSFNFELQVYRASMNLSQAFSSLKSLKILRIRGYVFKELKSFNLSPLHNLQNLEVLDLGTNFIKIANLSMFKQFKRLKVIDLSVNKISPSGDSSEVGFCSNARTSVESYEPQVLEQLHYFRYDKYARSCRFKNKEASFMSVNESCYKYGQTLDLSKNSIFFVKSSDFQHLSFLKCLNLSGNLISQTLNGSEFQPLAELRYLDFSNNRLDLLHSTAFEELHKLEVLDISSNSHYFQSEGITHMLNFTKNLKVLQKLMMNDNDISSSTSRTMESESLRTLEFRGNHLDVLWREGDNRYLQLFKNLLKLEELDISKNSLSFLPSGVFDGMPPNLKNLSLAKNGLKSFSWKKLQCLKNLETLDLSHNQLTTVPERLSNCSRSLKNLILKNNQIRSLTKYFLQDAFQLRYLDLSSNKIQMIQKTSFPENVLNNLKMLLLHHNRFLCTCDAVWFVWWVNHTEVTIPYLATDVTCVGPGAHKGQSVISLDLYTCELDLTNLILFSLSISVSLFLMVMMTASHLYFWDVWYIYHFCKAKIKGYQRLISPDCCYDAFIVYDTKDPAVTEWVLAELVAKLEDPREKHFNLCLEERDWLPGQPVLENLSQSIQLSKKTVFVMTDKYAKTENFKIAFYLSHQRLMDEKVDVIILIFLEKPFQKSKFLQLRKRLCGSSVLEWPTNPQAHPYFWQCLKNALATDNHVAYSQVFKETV
In words: TLR activation, HEK-BLUE-hTLR7 SEAP reporter cells. Type of test: cell-based. The settings on record: 16-20 hours, lowest concentration giving SEAP response at least 2x vehicle control, tested 0.01-30 micromolar. On the procedure:
(§1) HEK-BLUE-hTLR7 or hTLR8 reporter cells were obtained from InvivoGen, San Diego, Calif. According to the manufacturer's description, these reporter cells were prepared by co-transfection of HEK293 cells with an inducible secreted embryonic alkaline phosphatase (SEAP) reporter gene and either the human TLR7 or TLR8 gene. The SEAP reporter gene was placed under the control of an IFN-β minimal promoter fused to five NF-κB and AP-1-binding sites. In the presence of a TLR ligand, activation of NF-κB and AP-1 occurs, resulting in a corresponding increase in SEAP levels.
(§2) In the assay, the HEK cells were grown and maintained using standard cell culture techniques in a growth medium that contained Dulbecco's Modified Eagle Medium (ThermoFisher Scientific Incorporated, Waltham, Mass.) supplemented with 1% penicillin/streptomycin and 10% heat-inactivated Gibco fetal bovine serum (ThermoFisher Scientific). Each compound was solubilized in DMSO to create a 3 mM stock solution. The stock solution was then further diluted with the growth medium to prepare serial dilutions. Each test compound was tested at a concentration of 30, 10, 3.3, 1.1, 0.37, 0.12, 0.04, and 0.01 micromolar using a 96-well format with 5×10^4 cells and 200 microliters of growth medium per well.
(§3) For each compound, hTLR7, hTLR8, and their respective null control HEK cells were screened. DMSO serially diluted into the growth medium served as the vehicle control. Cell culture supernatants containing the SEAP reporter were collected after an incubation period of 16-20 hours in a cell culture incubator (37° C. and 5% CO2), and either analyzed immediately or stored at −80° C. SEAP levels were measured using the colorimetric enzyme assay (QUANTI-BLUE (InvivoGen) according to manufacturer's instructions.
(§4) Specifically, the minimum effective concentration of each compound (micromolar) was determined as the lowest concentration of the compound that produced a SEAP expression response at least 2× greater than that observed with the vehicle control wells.

A further test deals with T2, human TLR8 (Homo sapiens, UniProt Q9NR97).
T2 construct: host or cells: HEK293 (HEK-BLUE-hTLR8)
T2 sequence (Q9NR97 27-1041): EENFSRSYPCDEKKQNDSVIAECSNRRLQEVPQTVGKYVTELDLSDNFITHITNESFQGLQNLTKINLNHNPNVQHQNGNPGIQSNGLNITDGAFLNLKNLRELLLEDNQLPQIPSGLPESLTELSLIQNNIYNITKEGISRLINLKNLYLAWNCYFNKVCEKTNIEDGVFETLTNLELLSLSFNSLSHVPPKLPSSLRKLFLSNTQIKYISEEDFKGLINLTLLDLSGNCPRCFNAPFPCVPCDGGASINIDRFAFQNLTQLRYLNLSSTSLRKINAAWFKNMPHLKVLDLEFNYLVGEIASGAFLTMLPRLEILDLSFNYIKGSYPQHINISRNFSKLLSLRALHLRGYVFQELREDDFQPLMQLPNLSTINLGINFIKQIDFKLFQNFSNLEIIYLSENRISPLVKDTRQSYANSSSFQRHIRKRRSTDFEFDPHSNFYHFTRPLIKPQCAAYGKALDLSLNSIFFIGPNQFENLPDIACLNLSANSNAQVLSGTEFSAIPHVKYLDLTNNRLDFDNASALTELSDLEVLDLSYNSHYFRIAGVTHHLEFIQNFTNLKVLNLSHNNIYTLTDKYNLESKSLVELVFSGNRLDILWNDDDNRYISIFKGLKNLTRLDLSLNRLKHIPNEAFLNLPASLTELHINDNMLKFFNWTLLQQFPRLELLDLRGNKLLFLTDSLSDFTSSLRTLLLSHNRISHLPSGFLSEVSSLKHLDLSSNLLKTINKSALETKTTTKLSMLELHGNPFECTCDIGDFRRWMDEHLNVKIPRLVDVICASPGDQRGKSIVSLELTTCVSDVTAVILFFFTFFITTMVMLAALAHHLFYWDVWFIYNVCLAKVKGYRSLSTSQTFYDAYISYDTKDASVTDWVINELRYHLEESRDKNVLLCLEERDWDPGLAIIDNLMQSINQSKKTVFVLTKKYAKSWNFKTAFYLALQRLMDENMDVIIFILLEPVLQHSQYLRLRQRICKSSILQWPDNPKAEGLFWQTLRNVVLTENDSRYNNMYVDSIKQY
Nature of the test: TLR activation, HEK-BLUE-hTLR8 SEAP reporter cells. The settings on record: 16-20 hours, lowest concentration giving SEAP response at least 2x vehicle control, tested 0.01-30 micromolar. The class given is cell-based. On the procedure: as §1, §2, §3, §4

`CC(C)[C@H](C)n1cnc2c(N)nc3ccccc3c21` [Example 2, 1-[(1S)-1,2-dimethylpropyl]imidazo[4,5-c]quinolin-4-amine]: on human TLR7, the “MEC to Produce TLR Activation: TLR 7” value is above 30 µM. The “MEC to Produce TLR Activation: TLR 8” value on human TLR8 was above 30 µM.

Take `C[C@H](n1cnc2c(N)nc3ccccc3c21)C(C)(C)F` [Example 21, 1-[(1S)-2-fluoro-1,2-dimethyl-propyl]imidazo[4,5-c]quinolin-4-amine]: at human TLR7, the “MEC to Produce TLR Activation: TLR 7” value was above 30 µM. The “MEC to Produce TLR Activation: TLR 8” value on human TLR8 was above 30 µM.

Regarding `C[C@H](n1cnc2c(N)nc3ccccc3c21)C(C)(C)O` [Example 10, (3S)-3-(4-aminoimidazo[4,5-c]quinolin-1-yl)-2-methyl-butan-2-ol], the “MEC to Produce TLR Activation: TLR 7” value on human TLR7 is above 30 µM. In addition, at human TLR8, the “MEC to Produce TLR Activation: TLR 8” value is above 30 µM.

Take `C[C@@H](n1cnc2c(N)nc3ccccc3c21)C(C)(C)F` [Example 20, 1-[(1R)-2-fluoro-1,2-dimethyl-propyl]imidazo[4,5-c]quinolin-4-amine]: on human TLR7, the “MEC to Produce TLR Activation: TLR 7” value turned out to be 3.3 µM. The “MEC to Produce TLR Activation: TLR 8” value at human TLR8 is above 30 µM.

Consider `CC[C@H](n1cnc2c(N)nc3ccccc3c21)C(C)(C)O` [Example 12, (3S)-3-(4-aminoimidazo[4,5-c]quinolin-1-yl)-2-methyl-pentan-2-ol], for which the “MEC to Produce TLR Activation: TLR 7” value at human TLR7 is above 30 µM. Also, the “MEC to Produce TLR Activation: TLR 8” value at human TLR8 is above 30 µM.

On to `CCC[C@H](n1cnc2c(N)nc3ccccc3c21)C(C)(C)O` [Example 14, (3S)-3-(4-aminoimidazo[4,5-c]quinolin-1-yl)-2-methyl-hexan-2-ol], for which the “MEC to Produce TLR Activation: TLR 7” value on human TLR7 was above 30 µM. Moreover, the “MEC to Produce TLR Activation: TLR 8” value at human TLR8 is above 30 µM.

Consider `C[C@H](C1CCCCC1)n1cnc2c(N)nc3ccccc3c21` [Example 5, 1-[(1R)-1-cyclohexylethyl]imidazo[4,5-c]quinolin-4-amine], for which, at human TLR7, the “MEC to Produce TLR Activation: TLR 7” value was 1.11 µM. Besides, the “MEC to Produce TLR Activation: TLR 8” value at human TLR8 was above 30 µM.

Take `CC(C)Cn1cnc2c(N)nc3ccccc3c21` [Comparative Example 1, 1-isobutylimidazo[4,5-c]quinolin-4-amine, reference compound]: the “MEC to Produce TLR Activation: TLR 7” value at human TLR7 came out at 10 µM. The “MEC to Produce TLR Activation: TLR 8” value on human TLR8 was above 30 µM.

For the compound `CC(C)C[C@@H](n1cnc2c(N)nc3ccccc3c21)C(C)(C)O` [Example 17, (3R)-3-(4-aminoimidazo[4,5-c]quinolin-1-yl)-2,5-dimethyl-hexan-2-ol], on human TLR7, the “MEC to Produce TLR Activation: TLR 7” value stood at 1.1 µM. On human TLR8, the “MEC to Produce TLR Activation: TLR 8” value is above 30 µM.

As to `C[C@H](n1cnc2c(N)nc3ccccc3c21)C(C)(C)C` [Example 4, 1-[(1S)-1,2,2-trimethylpropyl]imidazo[4,5-c]quinolin-4-amine], the “MEC to Produce TLR Activation: TLR 7” value at human TLR7 was above 30 µM. Further, the “MEC to Produce TLR Activation: TLR 8” value on human TLR8 is above 30 µM.
